Data reported in PMC7425896, “Polypeptides derived from α-Synuclein binding partners to prevent α-Synuclein fibrils interaction with and take-up by cells” (PLoS ONE, 2020).
No end group written: not given here.

What was measured:
[1] = test system: Neuro-2a cells; experiment: Internalization (take-up) of αSyn-Alexa488 fibrils by Neuro-2a cells, 96-well plate assay with Trypan blue quenching; format: cell-based, Murine; settings: Trypan blue quench; for effect of endocytosis inhibitors on αSyn fibrils take-up by Neuro-2a cells: cells exposed 1 hour to chlorpromazine 0–10 μg/ml or EIPA 0–50 μM before αSyn-Alexa488 fibrils 0.5 μM, 4 hours, 5 wells
Description: The uptake of Alexa488-labeled αSyn fibrils (0.5 μM equivalent monomer concentration) pre-incubated or not for 30 min at 37°C in DMEM with the ligands (Hsc70, peptides or Surfen) at different concentrations to Neuro-2A cells was also assessed using a 96-well plate assay. The cells cultured on 96-wells plates were incubated with the fibrils, preincubated or not with the ligands for 30 min at 37°C in DMEM, in 5 independent wells. After 4 hours the media was removed and Hoechst (Sigma-Aldrich) diluted at 0.2 μg/ml in serum-free, phenol red-free DMEM was added for 30 min. The cells were washed twice with serum-free, phenol red-free DMEM and 0.1% Trypan Blue (Sigma-Aldrich) was added to quench the fluorescence of plasma membrane-bound Alexa488-labeled αSyn fibrils. For each wells Alexa488 and Hoechst fluorescences were recorded on a Clariostar microplate reader (BMG LABTECH GmbH, Germany).
To assess to role of endocytosis in αSyn fibrils internalization, Neuro-2a cells cultured on 96-wells plates were first incubated with increasing concentrations of chlorpromazine or l’5-N-ethyl-isopropyl-amiloride (EIPA). After 1 hour Alexa488-labeled αSyn fibrils (0.5 μM equivalent monomer concentration) was added. The experiment was then performed as above.

[2] = target: T1, αSyn fibrils (Homo sapiens, UniProt P37840); experiment: Binding of peptides and Surfen to preformed αSyn fibrils, sedimentation and reversed phase chromatography; settings: αSyn fibrils 100 μM; for Bound peptides / Bound peptides (%) / binding to αSyn fibrils (in words): ligand 200 μM, 1h RT, PBS; for Bound peptides / Bound peptides (%): pellet 20,000g, C18 reversed phase chromatography, absorbance 215 nm (peptides) or 260 nm (Surfen); for binding to αSyn fibrils (in words) / Kd: sedimentation, reversed phase chromatography; for Kd: peptide 0–200 μM
T1 construct: made in house
Description: Hsc70-derived peptides, the […] peptide or the Surfen molecule (0 or 200 μM) were incubated with or without αSyn fibrils (100 μM) for 1h at RT in PBS. The samples were centrifuged for 30 min in a […] tabletop centrifuge (Eppendorf) at 20,000g and 20°C. The pellets were first washed by 100 μL of 0.1% TFA and then dissolved for 30 min in 30 μL of pure TFA. After TFA evaporation, the samples were resuspended in 0.1% TFA and stored at -20°C. The composition of each sample was assessed by phase reverse chromatography on a C18 column (Jupiter C18 300A from Phenomenex, Torrance, CA, USA). The solvant composition was 0.1% TFA for solvent A and 80% acetonitrile, 0.09% TFA for solvent B, and the flow was set at 200 μl/min. The column was equilibrated in 5% B. The peptides were eluted by a gradient from 5% to 80% of solvent B. The amount of αSyn-associated ligand present in each sample was determined by comparing their respective absorbance at 215 nm (peptides) or 260 nm (Surfen) to the absorbance of a known amount of the same ligand. For KD measurements the same experiment was performed using a range of peptide concentrations (0-200 μM).

[3] = Secondary structure content by far-UV circular dichroism; format: physicochemical; settings: far-UV CD, 20°C, deconvoluted with Dichroweb
Description: Far-UV CD spectra were recorded at 20°C using a JASCO J-810 dichrograph equipped with a thermostated cell holder using a 0.01-cm path length quartz cuvette. Each spectrum was the average of 10 acquisitions recorded in the 260–195 nm range with 0.5-nm steps, a bandwidth of 2 nm, and at a speed of 50 nm/min. All spectra were buffer corrected. The spectra were deconvoluted with the Dichroweb software.

[4] = test system: monomeric αSyn; experiment: Monomeric αSyn assembly into fibrils monitored by Thioflavin T binding; format: biochemical, human; settings: soluble αSyn 50 μM, peptide 50 μM (equimolar), PBS, 37°C, 600 rpm, 4 independent experiments
Description: αSyn (50 μM monomer concentration) was incubated in the absence or in the presence of peptides (50 μM) in PBS at 37°C under continuous shaking in an Eppendorf Thermomixer set at 600 rpm. Aliquots (10 μL) were withdrawn at different time intervals from the assembly reaction and mixed to a Thioflavin T solution (10 μM; 400 μL). Thioflavin T fluorescence was recorded with a Cary Eclipse spectrofluorimeter (Varian Medical Systems Inc.) using excitation and emission wavelengths set at 440 and 480 nm, respectively. The nature of the fibrils obtained at the end of the aggregation reaction was assessed by electron microscopy as described above. The proportion of αSyn assembled into fibrils was assessed by ultracentifugation in a TL100 tabletop centrifuge (Beckman) at 50,000g and 20°C for 30 min and analyse of the supernatant and pellet fractions by SDS-PAGE. Following Coomassie staining / destaining the gels were visualized using a ChemiDocTM MP (BioRad). Images were processed and quantified using Image Lab.

[5] = target: T1, αSyn fibrils; experiment: Filter trap (cellulose acetate filter retardation) assay of ATTO488-labelled Hsc70 and subdomains binding to αSyn fibrils; settings: labelled:unlabelled 1:50, 0–2 μM (domains 0–5 μM), αSyn fibrils 1 μM, PBS, 1h RT, fluorescence, filtered in triplicate, 2 to 3 independent experiments, read-out: KD of ATTO488-labelled polypeptides for αSyn fibrils
Description: The KD for Hsc70, SBD, SBDβ and SBD-lid interaction with αSyn fibrils were measured as follow. Hsc70 and its subdomains were first labeled by addition of the aminoreactive fluorescent dye ATTO488 (Invitrogen, Carlsbad, CA, USA) using a protein:dye molar ratio of 1:5. The reaction was stopped by adding Tris-HCl pH 7.5 (20 mM final concentration). The unreacted fluorophore was removed by NAP5 desalting column. Under these conditions the majority of primary amines unaffected by the labelling as 0.05 to 0.08 dye molecules were incorporated on average within Hsc70 or its subdomains, as assessed by absorbance spectroscopy. Binding of ATTO488-labeled polypeptides to fibrillar αSyn was then followed by a filter retardation assay where fibrils and associated proteins are retained on a membrane. The different ATTO488-labeled polypeptides were diluted with their unlabeled counterpart (labeled:unlabeled polypeptides ratio of 1:50) at different final concentrations (0–2 μM) and incubated with or without αSyn fibrils (1 μM) in PBS for 1h at RT. 200 μl of each sample were filtered in triplicate through cellulose acetate membranes (0.2 μm pore size, Millipore Corp., Bedford, MA) using a 48-slot slot-blot filtration apparatus (GE Healthcare). The amount of labeled polypeptide retained on the membrane was visualized using a ChemiDocTM MP (BioRad). Images were processed and quantified using Image Lab.

[6] = test system: fibrillar αSyn; experiment: Sedimentation assay of Hsc70 with fibrillar αSyn, SDS-PAGE of pellet and supernatant; format: binding, human; settings: Hsc70 10 μM, fibrillar αSyn 100 μM, 1h RT, PBS, 50,000g 30 min
Description: For binding assay, αSyn fibrils (100 μM) alone, Hsc70 alone (10 μM) or αSyn fibrils and Hsc70 (100 and 10 μM, respectively) were incubated for 1h at RT in PBS. Samples were spun for 30 min at 50,000g and 20°C in a TL100 tabletop ultracentrifuge (Beckman) and the proportion of Hsc70 present in the pellet vs the supernatant was analysed by SDS-PAGE.

[7] = test system: Neuro-2a cells; experiment: Binding of αSyn-Alexa488 fibrils to the plasma membrane of Neuro-2a cells; format: cell-based, Murine; settings: αSyn-Alexa488 fibrils 1 μM pre-incubated with ligand (0–10 μM) in DMEM 30 min 37°C; cells exposed 30 min; % cells with at least 1 fluorescent foci
Description: Alexa488-labeled αSyn fibrils (1 μM equivalent monomer concentration) were first incubated for 30 min at 37°C in DMEM without or with the ligands (Hsc70 or the NKApep peptide) at different concentrations. Neuro-2a cells cultured on ibidi-μ-Dishes (ibidi, Martinsried, Germany) were then incubated for 30 min with this mix. Then, the cells were washed and immediately imaged in serum-free, phenol red-free DMEM on a Zeiss Axio Observer Z1 epifluorescence microscope equipped with an Incubator XLmulti S2 RED LS (Carl Zeiss) and an Orca-R2 camera (Hamamatsu) at a 20x magnification. The percentage of cells with bound Alexa488 foci was estimated by randomly counting at least 500 cells in 10–15 fields and the experiments were reproduced independently 3 times. For each field the number of foci was automatically assessed using the software Fiji and an in-house built plugin.

[8] = test system: fibrillar αSyn; settings: sedimentation assay; read-out: dissociation constant of Hsc70 for fibrillar αSyn; cited from earlier work
Description: We previously brought evidence for Hsc70 interaction with fibrillar αSyn using a sedimentation assay. The dissociation constant we measured was 0.1 μM. Here we confirmed the interaction between Hsc70 and fibrillar αSyn using the same sedimentation assay followed by quantitative analysis of the proteins in the pellet and the supernatant fractions by SDS-PAGE (Fig 1A). […] To determine the affinity of Hsc70 for fibrillar αSyn we incubated preform ...

Row | Compound | Bound peptides [2] [µM] | Bound peptides (%) [2] [%] | binding to αSyn fibrils (in words) [2] | Secondary structure composition other [3] [%] | Secondary structure composition α-helix [3] [%] | Secondary structure composition β-strand [3] [%] | further results
1 | CCN(c1nc(N)c(C(=O)N=C(N)N)nc1Cl)C(C)C [EIPA, l’5-N-ethyl-isopropyl-amiloride] |  |  |  |  |  |  | effect of endocytosis inhibitors on αSyn fibrils take-up by Neuro-2a cells [1]: inhibited in a dose-dependent manner
2 | Cc1cc(N)c2cc(NC(=O)Nc3ccc4nc(C)cc(N)c4c3)ccc2n1 [Surfen, reference compound] | 176 | 88 | found to bind to αSyn fibrils |  |  |  | effect on αSyn fibrils take-up by Neuro-2a cells ([1]; ligand 2 or 10 μM with Alexa488-labeled αSyn fibrils 1 μM in DMEM 30 min 37°C, cells exposed 2 hours, 3 independent experiments): affected, in a dose-dependent way, their take-up
3 | CN(C)CCCN1c2ccccc2Sc2ccc(Cl)cc21 [chlorpromazine] |  |  |  |  |  |  | effect of endocytosis inhibitors on αSyn fibrils take-up by Neuro-2a cells [1]: inhibited in a dose-dependent manner
4 | FTTYSDNQPGV [Hsc-5] | 2.8 | 1.4 | did not bind | 85 | 0 | 15 | 
5 | GILNVSAVDKSTGKENKITITN [Hsc-10] | 72 | 36 | did bind | 41 | 46 | 13 | Kd [2]: > 100000 nM; effect on αSyn assembly into fibrils [4]: accelerated aggregation
6 | GKFELTGIPPAPRGVPQIEVT [Hsc-8] | 1.6 | 0.8 | did not bind | 69 | 7 | 24 | 
7 | Hsc70-ATTO488: Hsc70 labeled with the aminoreactive fluorescent dye ATTO488 |  |  |  |  |  |  | Kd [5]: 490 ± 20 nM
8 | Hsc70: molecular chaperone Hsc70, recombinant His6-tagged, full-length |  |  |  |  |  |  | Hsc70 co-sedimentation with pre-formed αSyn fibrils [6]: pulled into the pellet; effect on αSyn fibrils binding to Neuro-2a cells [7]: affects αSyn fibrils binding to Neuro-2a cells in a dose-dependent manner; effect on αSyn fibrils take-up by Neuro-2a cells ([1]; αSyn-Alexa488 fibrils 0.5 μM pre-incubated with ligand 0–10 μM in DMEM 30 min 37°C, cells exposed 4 hours, plate reader): significantly affected their take-up; Kd [8]: 100 nM
9 | LSKEDIERMVQEAEKY [Hsc-1] | 1.2 | 0.6 | did not bind | 48 | 52 | 0 | 
10 | LTGIPPAPRGVPQIE [Hsc-7] | 1.2 | 0.6 | did not bind | 73 | 10 | 17 | 
11 | NMKATVEDEKLQGKINDEDKQKIL [Hsc-3] | 1.2 | 0.6 | did not bind | 84 | 9 | 7 | 
12 | TKQTQTFTTYSDNQPGVLIQVYE [Hsc-6] | 68 | 34 | did bind | 80 | 0 | 20 | Kd [2]: > 100000 nM; effect on αSyn assembly into fibrils [4]: significantly slowed down αSyn assembly into fibrils
13 | VEDEKLQGKINDED [Hsc-2] | 1.0 | 0.5 | did not bind | 81 | 6 | 13 | 
